Experiments:
[1] = target: GDP-bound NRAS wild-type protein (Homo sapiens, UniProt P01111); assay: Binding to NRAS by surface plasmon resonance (SPR), Single Cycle Kinetics; settings: KD ratio NRAS/KRAS, class symbols
[2] = target: GDP-bound HRAS wild-type protein (Homo sapiens, UniProt P01112); assay: Binding to HRAS by surface plasmon resonance (SPR), Single Cycle Kinetics; settings: KD ratio HRAS/KRAS, class symbols
GDP-bound HRAS wild-type protein, sequence (P01112 whole entry): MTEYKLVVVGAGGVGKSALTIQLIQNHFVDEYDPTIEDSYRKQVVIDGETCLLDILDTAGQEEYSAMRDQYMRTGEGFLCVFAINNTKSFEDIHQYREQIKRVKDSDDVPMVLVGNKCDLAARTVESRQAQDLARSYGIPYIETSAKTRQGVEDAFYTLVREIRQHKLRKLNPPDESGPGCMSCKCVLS

GDP-bound NRAS wild-type protein, sequence (P01111 whole entry): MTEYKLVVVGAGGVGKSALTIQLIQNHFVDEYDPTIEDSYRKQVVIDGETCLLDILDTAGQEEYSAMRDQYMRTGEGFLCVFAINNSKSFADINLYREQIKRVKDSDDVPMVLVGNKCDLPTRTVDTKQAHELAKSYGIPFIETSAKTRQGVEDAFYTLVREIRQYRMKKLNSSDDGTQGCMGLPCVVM

| SMILES | NRAS/KRAS (ratio of KD value with respect to GDP-bound NRAS wild-type protein to KD value with respect to KRAS) [1] | HRAS/KRAS (ratio of KD value with respect to GDP-bound HRAS wild-type protein to KD value with respect to KRAS) [2] |
| --- | --- | --- |
| CCO[C@@H]1C[C@H]2C(=O)NC3(CC(C)(C)C3)C(=O)N(C)[C@@H](C3CCCC3)C(=O)N(C)[C@H](C(=O)N(C)CC)CC(=O)N(C)[C@H]3CCC/C=C/c4ccc(cc4)C[C@@H](C(=O)N(C)CC(=O)N[C@@H](CCc4ccc(Cl)c(Cl)c4)C(=O)N2C1)N1CC/C=C\C[C@@H](C1=O)N(C)C(=O)CN(C)C(=O)[C@H]([C@@H](C)CC)NC3=O [PP2577] | A (a compound having 10 or more and less than 20 is denoted as A) | A (a compound having 10 or more and less than 20 is denoted as A) |
| CCO[C@@H]1C[C@H]2C(=O)NC3(CC(C)(C)C3)C(=O)N(C)[C@@H](C3CCCC3)C(=O)N(C)[C@H](C(=O)N3CCCCC3)CC(=O)N(C)[C@H]3CCC/C=C/c4ccc(cc4)C[C@@H](C(=O)N(C)CC(=O)N[C@@H](CCc4ccc(Cl)c(Cl)c4)C(=O)N2C1)N1CC/C=C\C[C@@H](C1=O)N(C)C(=O)CN(C)C(=O)[C@H]([C@@H](C)CC)NC3=O [PP2578] | AA (a compound having 20 or more is denoted as AA) | A (a compound having 10 or more and less than 20 is denoted as A) |
| CCO[C@@H]1C[C@H]2C(=O)NC3(CC(C)(C)C3)C(=O)N(C)[C@@H](C(CC)CC)C(=O)N(C)[C@H](C(=O)N(C)C)CC(=O)N(C)[C@H]3CCC/C=C/c4ccc(cc4)C[C@@H](C(=O)N(C)CC(=O)N[C@@H](CCc4ccc(Cl)c(Cl)c4)C(=O)N2C1)N1CC/C=C\C[C@@H](C1=O)N(C)C(=O)CN(C)C(=O)[C@H]([C@@H](C)CC)NC3=O [PP2580] | AA (a compound having 20 or more is denoted as AA) | A (a compound having 10 or more and less than 20 is denoted as A) |
| CCO[C@@H]1C[C@H]2C(=O)NC3(CC(C)(C)C3)C(=O)N(C)[C@@H](C(CC)CC)C(=O)N(C)[C@H](C(=O)N3CCCC3)CC(=O)N(C)[C@H]3CCC/C=C/c4ccc(cc4)C[C@@H](C(=O)N(C)CC(=O)N[C@@H](CCc4ccc(Cl)c(Cl)c4)C(=O)N2C1)N1CC/C=C\C[C@@H](C1=O)N(C)C(=O)CN(C)C(=O)[C@H]([C@@H](C)CC)NC3=O [PP2581] | AA (a compound having 20 or more is denoted as AA) | A (a compound having 10 or more and less than 20 is denoted as A) |
| CCO[C@@H]1C[C@H]2C(=O)NC3(CC(C)(C)C3)C(=O)N(C)[C@@H](C3CCCC3)C(=O)N(C)[C@H](C(=O)N3CCCC3)CC(=O)N(C)[C@H]3CCC/C=C/c4ccc(cc4)C[C@@H](C(=O)N(C)CC(=O)N[C@@H](CCc4cc(F)c(C(F)(F)F)c(F)c4)C(=O)N2C1)N1CC/C=C\C[C@@H](C1=O)N(C)C(=O)CN(C1CC1)C(=O)[C@H]([C@@H](C)CC)NC3=O [PP2583] | A (a compound having 10 or more and less than 20 is denoted as A) | A (a compound having 10 or more and less than 20 is denoted as A) |
| CCO[C@@H]1C[C@H]2C(=O)NC3(CC(C)(C)C3)C(=O)N(C)[C@@H](C(CC)CC)C(=O)N(C)[C@H](C(=O)N(C)C)CC(=O)N(C)[C@H]3CC/C=C/c4ccc(cc4)C[C@@H](C(=O)N(C)CC(=O)N[C@@H](CCc4cc(F)c(C(F)(F)F)c(F)c4)C(=O)N2C1)N1CC/C=C\C[C@@H](C1=O)N(C)C(=O)CN(C)C(=O)[C@H]([C@@H](C)CC)NC3=O [PP2586] | A (a compound having 10 or more and less than 20 is denoted as A) | B (a compound having 3 or more and less than 10 is denoted as B) |
| CCO[C@@H]1C[C@H]2C(=O)NC3(CC(C)(C)C3)C(=O)N(C)[C@@H](C(CC)CC)C(=O)N(C)[C@H](C(=O)N(C)C)CC(=O)N(C)[C@H]3CC/C=C/c4ccc(cc4)C[C@@H](C(=O)N(C)CC(=O)N[C@@H](CCc4ccc(Cl)c(Cl)c4)C(=O)N2C1)N1CC/C=C\C[C@@H](C1=O)N(C)C(=O)CN(C)C(=O)[C@H]([C@@H](C)CC)NC3=O [PP2589] | AA (a compound having 20 or more is denoted as AA) | A (a compound having 10 or more and less than 20 is denoted as A) |
| CCO[C@@H]1C[C@H]2C(=O)NC3(CC(C)(C)C3)C(=O)N(C)[C@@H](C3CCCC3)C(=O)N(C)[C@H](C(=O)N(C)CC)CC(=O)N(C)[C@H]3CCCC/C=C/c4ccc(cc4)C[C@@H](C(=O)N(C)CC(=O)N[C@@H](CCc4ccc(Cl)c(Cl)c4)C(=O)N2C1)N1CC/C=C\C[C@@H](C1=O)N(C)C(=O)CN(C)C(=O)[C@H]([C@@H](C)CC)NC3=O [PP2592] | A (a compound having 10 or more and less than 20 is denoted as A) | A (a compound having 10 or more and less than 20 is denoted as A) |
| CCO[C@@H]1C[C@H]2C(=O)NC3(CC(C)(C)C3)C(=O)N(C)[C@@H](C3CCCC3)C(=O)N(C)[C@H](C(=O)N3CCCC3)CC(=O)N(C)[C@H]3CCCC/C=C/c4ccc(cc4)C[C@@H](C(=O)N(C)CC(=O)N[C@@H](CCc4ccc(Cl)c(Cl)c4)C(=O)N2C1)N1CC/C=C\C[C@@H](C1=O)N(C)C(=O)CN(C)C(=O)[C@H]([C@@H](C)CC)NC3=O [PP2593] | A (a compound having 10 or more and less than 20 is denoted as A) | A (a compound having 10 or more and less than 20 is denoted as A) |
| CCC(CC)[C@H]1C(=O)N(C)[C@H](C(=O)N(C)C)CC(=O)N(C)[C@H]2CCC/C=C/c3ccc(cc3)C[C@@H](C(=O)N(C)CC(=O)N[C@@H](CCc3cc(F)c(C(F)(F)F)c(F)c3)C(=O)N3C[C@H](OC(C)C)C[C@H]3C(=O)NC3(CC(C)(C)C3)C(=O)N1C)N1CC/C=C\C[C@@H](C1=O)N(C)C(=O)CN(C)C(=O)[C@H]([C@@H](C)CC)NC2=O [PP2594] | A (a compound having 10 or more and less than 20 is denoted as A) | A (a compound having 10 or more and less than 20 is denoted as A) |
| CC[C@H](C)[C@@H]1NC(=O)[C@@H]2CCC/C=C/c3ccc(cc3)C[C@@H](C(=O)N(C)CC(=O)N[C@@H](CCc3ccc(Cl)c(Cl)c3)C(=O)N3C[C@H](OC(C)C)C[C@H]3C(=O)NC3(CC(C)(C)C3)C(=O)N(C)[C@@H](C3CCCC3)C(=O)N(C)[C@H](C(=O)N(C)CC)CC(=O)N2C)N2CC/C=C\C[C@@H](C2=O)N(C)C(=O)CN(C)C1=O [PP2595] | A (a compound having 10 or more and less than 20 is denoted as A) | B (a compound having 3 or more and less than 10 is denoted as B) |
| CC[C@H](C)[C@@H]1NC(=O)[C@@H]2CCC/C=C/c3ccc(cc3)C[C@@H](C(=O)N(C)CC(=O)N[C@@H](CCc3ccc(Cl)c(Cl)c3)C(=O)N3C[C@H](OC(C)C)C[C@H]3C(=O)NC3(CC(C)(C)C3)C(=O)N(C)[C@@H](C3CCCC3)C(=O)N(C)[C@H](C(=O)N3CCCC3)CC(=O)N2C)N2CC/C=C\C[C@@H](C2=O)N(C)C(=O)CN(C)C1=O [PP2596] | A (a compound having 10 or more and less than 20 is denoted as A) | A (a compound having 10 or more and less than 20 is denoted as A) |
| CCO[C@@H]1C[C@H]2C(=O)NC3(CC(C)(C)C3)C(=O)N(C)[C@@H](C3CCCC3)C(=O)N(C)[C@H](C(=O)N3CCCCC3)CC(=O)N(C)[C@H]3CC/C=C/c4ccc(cc4)C[C@@H](C(=O)N(C)CC(=O)N[C@@H](CCc4ccc(Cl)c(Cl)c4)C(=O)N2C1)N1CC/C=C\C[C@@H](C1=O)N(C)C(=O)CN(C)C(=O)[C@H]([C@@H](C)CC)NC3=O [PP2597] | A (a compound having 10 or more and less than 20 is denoted as A) | A (a compound having 10 or more and less than 20 is denoted as A) |
| CCO[C@@H]1C[C@H]2C(=O)NC3(CC(C)(C)C3)C(=O)N(C)[C@@H](C3CCCC3)C(=O)N(C)[C@H](C(=O)N(C)CC)CC(=O)N(C)[C@H]3CC/C=C/c4ccc(cc4)C[C@@H](C(=O)N(C)CC(=O)N[C@@H](CCc4ccc(Cl)c(Cl)c4)C(=O)N2C1)N1CC/C=C\C[C@@H](C1=O)N(C)C(=O)CN(C1CC1)C(=O)[C@H]([C@@H](C)CC)NC3=O [PP2598] | A (a compound having 10 or more and less than 20 is denoted as A) | A (a compound having 10 or more and less than 20 is denoted as A) |
| CCC(CC)[C@H]1C(=O)N(C)[C@H](C(=O)N(C)C)CC(=O)N(C)[C@H]2CCC/C=C/c3ccc(cc3)C[C@@H](C(=O)N(C)CC(=O)N[C@@H](CCc3cc(F)c(C(F)(F)F)c(F)c3)C(=O)N3CCC[C@H]3C(=O)NC3(CC(C)(C)C3)C(=O)N1C)N1CC/C=C\C[C@@H](C1=O)N(C)C(=O)CN(C)C(=O)[C@H]([C@@H](C)CC)NC2=O [PP2600] | A (a compound having 10 or more and less than 20 is denoted as A) | A (a compound having 10 or more and less than 20 is denoted as A) |
| CC[C@H](C)[C@@H]1NC(=O)[C@@H]2CCC/C=C/c3ccc(cc3)C[C@@H](C(=O)N(C)CC(=O)N[C@@H](CCc3ccc(Cl)c(Cl)c3)C(=O)N3CCC[C@H]3C(=O)NC3(CC(C)(C)C3)C(=O)N(C)[C@@H](C3CCCC3)C(=O)N(C)[C@H](C(=O)N(C)CC)CC(=O)N2C)N2CC/C=C\C[C@@H](C2=O)N(C)C(=O)CN(C)C1=O [PP2601] | A (a compound having 10 or more and less than 20 is denoted as A) | A (a compound having 10 or more and less than 20 is denoted as A) |
